# Laboratory results from patent publication US20040086888A1, “Method for tandem genomic/proteomic analysis of proliferating cells” (priority 2003, published 2004).
# Assays:
# human breast tumor cells = experiment: Hormonal therapy inhibition of cell proliferation (Example 6); assay type: cell-based
# tumor cells in culture = experiment: Microtiter well assay of drug/radiation interaction (FIGS. 8A-8C); assay type: cell-based; settings: Taxol 8.5 ng/ml or 42.5 ng/ml + 2 Gy and 4 Gy versus radiation-only
# From the text: The microtiter well assay is ideally suited for examination of the interaction of chemotherapeutic agents and radiation. Issues such as the differential sensitivity of drug/radiation combinations and the timing of drug/radiation combinations may be directly addressed with this system.
# [1] = test system: human ovarian tumor cells; experiment: Combination chemotherapy microtiter assay (Example 5); settings: four tumor specimens
# [2] = test system: human brain tumor and human ovarian tumor cells; experiment: Combined modality drug/radiation microtiter assay (Example 8); assay type: cell-based; settings: Taxol 0.5-25.0 μM with 2 Gy, or Taxol 5 μM with 1 Gy-6 Gy; through five days post-treatment
# Description: Twenty-four hours post-plating, cells in the microtiter plate wells were exposed to the chemotherapeutic agent Taxol. One set of plates was designed to have escalating Taxol doses with (0.5-25.0 μM) with a fixed radiation dose (2 Gy). A second set of plates was designed to have a fixed Taxol dose (5 μM) with an escalating radiation dose (1 Gy-6 Gy). The cells in the plates were irradiated using a Siemans Stabilipan X-ray machine operating at 250 kVp, 15 mA with a dose rate of 75 rad/min.
# For each of the two treatment schema, cell number per well was monitored as a function of time through five days post-treatment. Cell number relative to controls was determined and survival curves were fit.
# fibroblast cell line = experiment: Immunoperoxidase staining for intermediate filaments; assay type: cell-based; settings: immunoperoxidase technique, cells in culture
# From the text: (§1) The technique is practiced as follows. The same cell culturing and well distribution process is used as in the cytotoxicity assay described above, but rather than exposing the cells to chemotherapeutic or other agents, the cells are instead fixed and stained. With the stain or stain cocktail described below, the epithelial cells are identified by their intermediate filaments and/or specific membrane antigens by means of a monoclonal antibody immunoperoxidase technique. […] The fixed stained cells are then counted. If the specimen is positive for epithelial cells, the process is complete. If the specimen is negative for epithelial cells, an independent fixing and staining process is subsequently completed, with fresh cells from identical wells, using Vimentin as a stain to confirm the non-epithelial nature of the cells.
# (§2) Many tumor specimens will contain a mixture of cancer and normal cells. Although in many cases tumor cells will readily grow in tissue culture while the normal cells will not, it is important to be able to distinguish the two cell types. Using immunoperoxidase techniques to stain cells for various intermediate filaments, the differences between normal (fibroblast-like) cells and cells from epithelial tumors were characterized. These techniques can also be used to identify other tumor cell characteristics which may have prognostic value. […]
# [3] = test system: epithelial tumor cell lines; experiment: as above; assay type: cell-based; settings: immunoperoxidase technique, cells in culture
# From the text: as §1, §2
molecule,measurement,setting,value
CC/C(=C(\c1ccccc1)c1ccc(OCCN(C)C)cc1)c1ccccc1 [Tamoxifen],inhibition of cell proliferation (cell number relative to control),"human breast tumor cells; 10 nM to 20 μM, six doses, 24 h exposure, then 72 h incubation, four breast tumor specimens",two of the four breast specimens tested showed an inhibition of cell proliferation
same,concentration range in which the responses occurred,human breast tumor cells; range tested 10 nM to 20 μM,mid-to-high
CC(=O)O[C@H]1C(=O)[C@@]2(C)[C@H]([C@H](OC(=O)c3ccccc3)[C@]3(O)C[C@H](OC(=O)[C@H](O)[C@@H](NC(=O)c4ccccc4)c4ccccc4)C(C)=C1C3(C)C)[C@]1(OC(C)=O)CO[C@@H]1C[C@@H]2O [Taxol],effect on radiation response (survival rates),tumor cells in culture,enhancement of radiation response
same,cell number relative to control,"[1]; escalating Taxol (1.0, 5.0, 25 μM) with fixed carboplatin (200 μM)",a dose response relationship was observed
same,"cell killing in combination with radiation (cell number relative to controls, survival curves)",[2],Both additive and synergistic cell killing were noted
N.N.O=C([O-])C1(C(=O)[O-])CCC1.[Pt+2] [carboplatin],cell number relative to control,"[1]; fixed Taxol (5 μM) with escalating carboplatin (50, 200, 1000 μM)",a dose response relationship was observed
Vimentin,staining of fibroblasts,fibroblast cell line,all fibroblast cells were positive
same,staining of epithelial tumor cells,[3],mildly positive
